The numbers were not newly measured in patent US20200093158A1, “COMPOSITIONS AND COMBINATIONS FOR USE AS FOOD SUPPLEMENTS FOR ANIMALS” (OmniGen Research, LLC, priority 2014, published 2020), which cites them from elsewhere.

The test system of one series is larvae of common carp. As to conditions: 1.76 parts per million of NH3, after 24 hours.
Series [1] deals with turbot (Scophthalmus maximus) juveniles.
The conditions of series [2]: 71.5 parts per million in diet for 8 weeks; 72 hours ammonia at 0.02, 0.2, 2 ppm (not at 20 ppm); vs control shrimp.

One may read the mortality as the share of the test organisms that died. As for `N` [NH3, ammonia], in the series on larvae of common carp, the mortality is listed as 50%. Moreover, the physiological disturbances result in series [1] (adapted small turbot, up to 0.4-0.5 parts per million) is given as “no major physiological disturbances”. In addition, the mortalities entry in series [1] (turbot juveniles, 4-6 weeks, up to 0.4 parts per million unionized ammonia, 16.5-17.5° C., pH 7.92-8.03) is recorded as “no mortalities”.

As for `CC1=C(/C=C/C(C)=C/C=C/C(C)=C/C=C/C=C(C)/C=C/C=C(C)/C=C/C2=C(C)C(=O)[C@@H](O)CC2(C)C)C(C)(C)C[C@H](O)C1=O` [astaxanthin], the “survival rates under ammonia exposure” value in series [2] was “higher”.
